Experimental data reported in US11969423B2, “Compounds” (GLAXOSMITHKLINE INTELLECTUAL PROPERTY DEVELOPMENT LIMITED, priority 2017, dated 2024).
pEC50: −log10 of the molar value.

How the values were obtained:
[1] = system: M. tuberculosis H37Rv-GFP; format: cell-based, Mycobacterium tuberculosis; settings: read-out: EC50_H37Rv
[2] = male, SD, in vivo
Experimental: Male SD rats (n=3/compound/route) were used for single intravenous and oral dose PK studies. Compounds were administered intravenously (infusion over 30 minutes) as a solution (Formulation: 5% DMSO: 20% Encapsine in saline; target dose 1 mg/kg) and orally as suspensions (Formulation: 1% Methyl Cellulose; target dose 5 mg/kg). After dosing, blood samples ([…]) were collected. Sampling times were the following:
0.25, 0.5 (just before end of infusion), 0.58, 0.75, 1, 1.5, 2, 3, 5, 7, and 24 hours; n=3 rats (intravenous infusion administration) 0.25, 0.5, 1, 2, 4, 6, 8, and 24 hours; n=3 rats (oral gavage administration)
All the blood samples were diluted with 25 μL of water and stored at −80° C. until analysis. Rat blood samples were analyzed for each compound using a method upon protein precipitation followed by LC-MS/MS analysis. All pharmacokinetic parameters were obtained by non-compartmental analysis of the different blood concentration-time profiles using WinNonLin Phoenix Version 6.3.

[3] = system: PPAR marker; settings: male, Swiss (Crl:CD-1(ICR)), mouse
[4] = male, Swiss (Crl:CD-1(ICR)), mouse, in vivo

SMILES | pEC50 [1] | further results
O=C(CCC(F)(F)F)N1CCC(c2cccnn2)CC1 [Example 19, 4,4,4-trifluoro-1-[4-(pyridazin-3-yl)piperidin-1-yl]butan-1-one] | 5.00 to 6.00 | –
O=C(CCC(F)(F)F)N1CCC(c2cncc(Cl)n2)CC1 [Example 32, 1-(4-(6-chloropyrazin-2-yl)piperidin-1-yl)-4,4,4-trifluorobutan-1-one] | > 7.30 | –
O=C(CCC(F)(F)F)N1CCC(F)(c2ccnc(F)c2)CC1 [Example 37, 4,4,4-trifluoro-1-(4-fluoro-4-(2-fluoropyridin-4-yl)piperidin-1-yl)butan-1-one] | > 7.30 | –
O=C(CCC(F)(F)F)N1CCC(c2cncc(C(F)(F)F)n2)CC1 [Example 24, 4,4,4-trifluoro-1-(4-(6-(trifluoromethyl)pyrazin-2-yl)piperidin-1-yl)butan-1-one] | 6.60 to 7.30 | –
O=C(CCC(F)(F)F)N1CCC(c2cccnc2C(F)(F)F)CC1 [Example 11, 4,4,4-trifluoro-1-[4-[2-(trifluoromethyl)-3-pyridyl]-1-piperidyl]butan-1-one] | 5.00 to 6.00 | –
O=C(CCC(F)(F)F)N1CCC(c2cnc(F)c(F)c2)CC1 [Example 23, 1-(4-(5,6-difluoropyridin-3-yl)piperidin-1-yl)-4,4,4-trifluorobutan-1-one] | > 7.30 | –
O=C(CCC(F)(F)F)N1CCC(c2cnccn2)CC1 [Example 1, 4,4,4-trifluoro-1-(4-pyrazin-2-yl-1-piperidyl)butan-1-one] | 6.00 to 6.30 | –
O=C(CCC(F)(F)F)N1CCC(c2cc(C(F)(F)F)ccn2)CC1 [Example 6, 4,4,4-trifluoro-1-[4-[4-(trifluoromethyl)-2-pyridyl]-1-piperidyl]butan-1-one] | > 7.30 | –
O=C(CCC(F)(F)F)N1CCC(c2ncc(F)cc2F)CC1 [Example 13, 1-[4-(3,5-difluoro-2-pyridyl)-1-piperidyl]-4,4,4-trifluoro-butan-1-one] | 6.60 to 7.30 | –
COc1ccc(C2CCN(C(=O)CCC(F)(F)F)CC2)cn1 [Example 10, 4,4,4-trifluoro-1-[4-(6-methoxy-3-pyridyl)-1-piperidyl]butan-1-one] | 6.60 to 7.30 | –
O=C(CCC(F)(F)F)N1CCC(F)(c2ccccn2)CC1 [Example 33, 4,4,4-trifluoro-1-(4-fluoro-4-(pyridin-2-yl)piperidin-1-yl)butan-1-one] | 6.60 to 7.30 | –
O=C(CCC(F)(F)F)N1CCC(F)(c2cc(C(F)(F)F)ccn2)CC1 [Example 39, 4,4,4-trifluoro-1-[4-fluoro-4-[4-(trifluoromethyl)-2-pyridyl]-1-piperidyl]butan-1-one] | 6.60 to 7.30 | –
O=C(CCC(F)(F)F)N1CCC(c2ccnc(C(F)(F)F)c2)CC1 [Example 18, 4,4,4-trifluoro-1-(4-(2-(trifluoromethyl)pyridin-4-yl)piperidin-1-yl)butan-1-one] | > 7.30 | F % (rat, 5 mg/kg) [2]: 75%; In vivo PPAR marker fold increase [3]: <6 fold; Mice liver hypertrophy (%) [4]: 6%
O=C(CCC(F)(F)F)N1CCC(c2cnc(C(F)(F)F)cn2)CC1 [Example 21, 4,4,4-trifluoro-1-(4-(5-(trifluoromethyl)pyrazin-2-yl)piperidin-1-yl)butan-1-one] | 6.00 to 6.30 | –
O=C(CCC(F)(F)F)N1CCC(c2cncc(Cl)c2)C1 (centres unmarked) [Example 38, 1-(3-(5-chloropyridin-3-yl)pyrrolidin-1-yl)-4,4,4-trifluorobutan-1-one] | > 7.30 | –
O=C(CCC(F)(F)F)N1CCC(c2cncnc2)CC1 [Example 16] | 5.00 to 6.00 | –
O=C(CCC(F)(F)F)N1CCC(c2ccc(F)nc2)CC1 [Example 4, 4,4,4-trifluoro-1-[4-(6-fluoro-3-pyridyl)-1-piperidyl]butan-1-one] | 6.60 to 7.30 | –
Cc1cc(C2CCN(C(=O)CCC(F)(F)F)CC2)ccn1 [Example 22, 4,4,4-trifluoro-1-(4-(2-methylpyridin-4-yl)piperidin-1-yl)butan-1-one] | > 7.30 | –
O=C(CCC(F)(F)F)N1CCC(c2cncc(Cl)c2)CC1 [Example 30, 1-(4-(5-chloropyridin-3-yl)piperidin-1-yl)-4,4,4-trifluorobutan-1-one] | > 7.30 | F % (rat, 5 mg/kg) [2]: 77%; In vivo PPAR marker fold increase [3]: <2 fold; Mice liver hypertrophy (%) [4]: 2%
O=C(CCC(F)(F)F)N1CCC(F)(c2cncc(Cl)n2)CC1 [Example 36, 1-(4-(6-chloropyrazin-2-yl)-4-fluoropiperidin-1-yl)-4,4,4-trifluorobutan-1-one] | 6.60 to 7.30 | –
O=C(CCC(F)(F)F)N1CCC(c2ccncc2F)CC1 [Example 26, 4,4,4-trifluoro-1-(4-(3-fluoropyridin-4-yl)piperidin-1-yl)butan-1-one] | 6.60 to 7.30 | –

SMILES | pEC50 [1] | further results
O=C(CCC(F)(F)F)N1CCC(F)(c2cccnc2)CC1 [Example 2, 4,4,4-trifluoro-1-[4-fluoro-4-(3-pyridyl)-1-piperidyl]butan-1-one] | > 7.30 | –
O=C(CCC(F)(F)F)N1CCC(F)(c2cncc(C(F)(F)F)c2)CC1 [Example 34, 4,4,4-trifluoro-1-(4-fluoro-4-(5-(trifluoromethyl)pyridin-3-yl)piperidin-1-yl)butan-1-one] | > 7.30 | –
O=C(CCC(F)(F)F)N1CCC(F)(c2ccnc(C(F)(F)F)c2)CC1 [Example 35, 4,4,4-trifluoro-1-(4-fluoro-4-(2-(trifluoromethyl)pyridin-4-yl)piperidin-1-yl)butan-1-one] | > 7.30 | –
O=C(CCC(F)(F)F)N1CCC(c2cncc(C(F)(F)F)c2)CC1 [Example 7, 4,4,4-trifluoro-1-[4-[5-(trifluoromethyl)-3-pyridyl]-1-piperidyl]butan-1-one] | > 7.30 | –
O=C(CCC(F)(F)F)N1CCC(c2ccc(F)cn2)CC1 [Example 17, 4,4,4-trifluoro-1-[4-(5-fluoro-2-pyridyl)-1-piperidyl]butan-1-one] | > 7.30 | –
O=C(CCC(F)(F)F)N1CCC(c2ccnc(Cl)c2)CC1 [Example 25, 1-(4-(2-chloropyridin-4-yl)piperidin-1-yl)-4,4,4-trifluorobutan-1-one] | > 7.30 | –
O=C(CCC(F)(F)F)N1CCC(c2ccc(F)nc2F)CC1 [Example 14, 1-[4-(2,6-difluoro-3-pyridyl)-1-piperidyl]-4,4,4-trifluoro-butan-1-one] | 6.60 to 7.30 | –
O=C(CCC(F)(F)F)N1CCC(c2cncc(F)c2)CC1 [Example 3, 4,4,4-trifluoro-1-[4-(5-fluoro-3-pyridyl)-1-piperidyl]butan-1-one] | 6.60 to 7.30 | –
O=C(CCC(F)(F)F)N1CCC(c2cccc(Cl)n2)CC1 [Example 27, 1-(4-(6-chloropyridin-2-yl)piperidin-1-yl)-4,4,4-trifluorobutan-1-one] | 6.60 to 7.30 | –
O=C(CCC(F)(F)F)N1CCC(F)(c2ccc(F)nc2)CC1 [Example 40] | 6.60 to 7.30 | –
O=C(CCC(F)(F)F)N1CCC(c2ncccn2)CC1 [Example 28, 4,4,4-trifluoro-1-[4-(pyrimidin-2-yl)piperidin-1-yl]butan-1-one] | 5.00 to 6.00 | –
O=C(CCCC(F)(F)F)N1CCC(c2cncc(Cl)c2)CC1 [Example 31, 1-(4-(5-chloropyridin-3-yl)piperidin-1-yl)-5,5,5-trifluoropentan-1-one] | 6.60 to 7.30 | –
O=C(CCC(F)(F)F)N1CCC(c2ccnc(F)c2)CC1 [Example 20, 4,4,4-trifluoro-1-(4-(2-fluoropyridin-4-yl)piperidin-1-yl)butan-1-one] | > 7.30 | –
O=C(CCC(F)(F)F)N1CCC(c2nccc(C(F)(F)F)n2)CC1 [Example 15] | 5.00 to 6.00 | –
O=C(CCC(F)(F)F)N1CCC(c2ccc(C(F)(F)F)nc2)CC1 [Example 5, 4,4,4-trifluoro-1-[4-[6-(trifluoromethyl)-3-pyridyl]-1-piperidyl]butan-1-one] | 6.00 to 6.30 | –
O=C(CCC(F)(F)F)N1CCC(F)(c2cncc(Cl)c2)CC1 [Example 29, 1-(4-(5-chloropyridin-3-yl)-4-fluoropiperidin-1-yl)-4,4,4-trifluorobutan-1-one] | > 7.30 | –
O=C(CCC(F)(F)F)N1CCC(c2cccc(F)n2)CC1 [Example 9, 4,4,4-trifluoro-1-[4-(6-fluoro-2-pyridyl)-1-piperidyl]butan-1-one] | 6.60 to 7.30 | –
COc1cncc(C2CCN(C(=O)CCC(F)(F)F)CC2)c1 [Example 12, 4,4,4-trifluoro-1-[4-(5-methoxy-3-pyridyl)-1-piperidyl]butan-1-one] | 6.00 to 6.30 | –
O=C(CCC(F)(F)F)N1CCC(c2cccc(C(F)(F)F)n2)CC1 [Example 8, 4,4,4-trifluoro-1-[4-[6-(trifluoromethyl)-2-pyridyl]-1-piperidyl]butan-1-one] | 6.60 to 7.30 | –
O=C(CCC(F)(F)F)N1CCC(F)(c2ccnc(Cl)c2)CC1 [Example 41] | > 7.30 | –
